In patent US7179825B2, “Retinoic acid mimetic anilides” (Janssen Pharmaceutica N.V., priority 1997, dated 2007):

Columns and labels:
[1] = test system: metabolism of retinoic acid in human breast cancer cells; test: Inhibition of retinoic acid (RA) metabolism (Example C.1); type: cell-based; conditions: MCF-7 human breast cancer cells, 3H-RA as substrate, concentration needed to reduce the amount of metabolites to 50% of the control
Outline: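 Test compound (in 1% DMSO) added at several concentrations to MCF-7 cell suspensions fed ³H-RA, after RA induction of metabolism one day earlier. Scintillation counting of the separated polar metabolite fraction; IC50 = concentration giving 50% of control metabolite level.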

Ovariectomized rats = test: Vaginal keratinization test on ovariectomized rats (Example C.2); type: in vivo; conditions: estradiol undecylate induced keratinization, per os once daily on days 1-3, active dose = 50% of rats show complete suppression; for minimal effective dose: Rattus norvegicus, po, read-out: LAD (lowest active dose)
Outline: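 Value is the lowest oral dose (mg/kg) at which half of tested rats show complete suppression of estradiol undecylate-induced vaginal keratinization by histology. Ovariectomized rats received 100 μg/100 g estradiol undecylate s.c., then compound or PEG 200 vehicle p.o. daily for three days; sacrifice one day later.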

With `CCC(CC)C(c1ccc(NC(=O)Cc2ccc(OC)cc2OC)cc1)n1ccnc1` (racemic) [Compound 126] the IC50 [1] was less than 0.01 nM and the “LAD (lowest active dose)” value (Ovariectomized rats) was 2.50 mg/kg.

In the case of `C/C(=C\c1ccccc1)C(=O)Nc1ccc(C(C(C)C)n2cncn2)cc1` (racemic) [Compound 154, (±)-(E)-2-methyl-N-[4-[2-methyl-1-(1H-1,2,4-triazol-1-yl)propyl]phenyl]-3-phenyl-2-propenamide], the IC50 ([1]; MCF7) is reported as 4.14 nM and the minimal effective dose (Ovariectomized rats) is reported as 5 mg/kg.

With `CC(C)C(c1ccc(NC(=O)/C=C/c2ccccc2)cc1)n1cncn1` (racemic) [Compound 155] the IC50 [1] was 50.1 nM and the “LAD (lowest active dose)” value (Ovariectomized rats) was greater than 10.00 mg/kg.

In the case of `CC(=Cc1cccc(Cl)c1)C(=O)Nc1ccc(C(C(C)C)n2cncn2)cc1` (racemic) [Compound 156], the IC50 [1] is reported as 31 nM and the “LAD (lowest active dose)” value (Ovariectomized rats) is reported as greater than 10.00 mg/kg.

For `C/C(=C\c1ccc(F)cc1)C(=O)Nc1ccc(C(C(C)C)n2cncn2)cc1` (racemic) [Compound 157], the IC50 [1] was 84.8 nM and the “LAD (lowest active dose)” value (Ovariectomized rats) was greater than 10.00 mg/kg.

For `CC(C)C(c1ccc(NC(=O)C(F)=Cc2ccccc2)cc1)n1cncn1` (racemic) [Compound 160], the IC50 [1] was 86.5 nM and the “LAD (lowest active dose)” value (Ovariectomized rats) was 10.00 mg/kg.

`CCC(=O)Nc1ccc(C(C(C)C)n2ccnc2)cc1` (racemic) [Compound 163] was tested, and the IC50 [1] was 2.36 nM and the “LAD (lowest active dose)” value (Ovariectomized rats) was 20.00 mg/kg.

`CC(Cc1ccccc1)C(=O)Nc1ccc(C(C(C)C)n2ccnc2)cc1` (racemic) [Compound 164, (±)-N-[4-[1-(1H-imidazol-1-yl)-2-methylpropyl]phenyl]-α-methylbenzenepropanamide] showed an IC50 ([1]; MCF7) of 8.15 nM and a minimal effective dose (Ovariectomized rats) of 20 mg/kg.

In the case of `CC(C)C(c1ccc(NC(=O)c2ccccc2)cc1)n1ccnc1` (racemic) [Compound 166], the IC50 [1] is reported as 1.75 nM and the “LAD (lowest active dose)” value (Ovariectomized rats) is reported as 5.00 mg/kg.

In the case of `CC(C)C(c1ccc(NC(=O)c2cc3ccccc3o2)cc1)n1ccnc1` (racemic) [Compound 167], the IC50 [1] is reported as 4.16 nM and the “LAD (lowest active dose)” value (Ovariectomized rats) is reported as 10.00 mg/kg.

For `CC(C)C(c1ccc(NC(=O)c2cc3ccccc3s2)cc1)n1ccnc1` (racemic) [Compound 168], the IC50 [1] was 2.36 nM and the “LAD (lowest active dose)” value (Ovariectomized rats) was 10.00 mg/kg.

With `CC(C)C(c1ccc(NC(=O)c2ccco2)cc1)n1ccnc1` (racemic) [Compound 169] the IC50 [1] was 0.531 nM and the “LAD (lowest active dose)” value (Ovariectomized rats) was 10.00 mg/kg.

For `CC(C)C(c1ccc(NC(=O)c2cnccn2)cc1)n1ccnc1` (racemic) [Compound 170], the IC50 [1] was 12.2 nM and the “LAD (lowest active dose)” value (Ovariectomized rats) was 10.00 mg/kg.

`CC(C)C(c1ccc(NC(=O)c2ccoc2)cc1)n1ccnc1` (racemic) [Compound 172] was tested, and the IC50 [1] was 3.41 nM and the “LAD (lowest active dose)” value (Ovariectomized rats) was 10.00 mg/kg.

For `CC(C)C(c1ccc(NC(=O)c2ccsc2)cc1)n1ccnc1` (racemic) [Compound 173], the IC50 [1] was 5.17 nM and the “LAD (lowest active dose)” value (Ovariectomized rats) was 10.00 mg/kg.

In the case of `CC(C)C(c1ccc(NC(=O)C2CCCCC2)cc1)n1ccnc1` (racemic) [Compound 174], the IC50 [1] is reported as 1.6 nM and the “LAD (lowest active dose)” value (Ovariectomized rats) is reported as 10.00 mg/kg.

For `C/C(C(=O)Nc1ccc(C(C(C)C)n2ccnc2)cc1)=C(/C)c1ccccc1` (racemic) [Compound 176], the IC50 [1] was 18.7 nM and the “LAD (lowest active dose)” value (Ovariectomized rats) was greater than 10.00 mg/kg.

`CC(C)C(c1ccc(NC(=O)c2ccc3ccccc3c2)cc1)n1ccnc1` (racemic) [Compound 179] was tested, and the IC50 [1] was 36.9 nM and the “LAD (lowest active dose)” value (Ovariectomized rats) was greater than 10.00 mg/kg.

With `CC(C)C(c1ccc(NC(=O)C2CCCO2)cc1)n1ccnc1` (racemic) [Compound 181] the IC50 [1] was 14.1 nM and the “LAD (lowest active dose)” value (Ovariectomized rats) was 10.00 mg/kg.

`CC(C)C(c1ccc(NC(=O)c2ccc3nnn(C)c3c2)cc1)n1ccnc1` (racemic) [Compound 184] was tested, and the IC50 [1] was 5.15 nM and the “LAD (lowest active dose)” value (Ovariectomized rats) was greater than 10.00 mg/kg.

For `CC(C)C(c1ccc(NC(=O)C2CCOC2)cc1)n1ccnc1` (racemic) [Compound 185], the IC50 [1] was 39.7 nM and the “LAD (lowest active dose)” value (Ovariectomized rats) was 10.00 mg/kg.

`CC(C)C(c1ccc(NC(=O)c2csc(-c3ccccc3)n2)cc1)n1ccnc1` (racemic) [Compound 186] was tested, and the IC50 [1] was greater than 100 nM and the “LAD (lowest active dose)” value (Ovariectomized rats) was greater than 10.00 mg/kg.

In the case of `CC(C)C(c1ccc(NC(=O)C(C)(c2ccccc2)c2ccccc2)cc1)n1ccnc1` (racemic) [Compound 189], the IC50 [1] is reported as greater than 100 nM and the “LAD (lowest active dose)” value (Ovariectomized rats) is reported as greater than 10.00 mg/kg.

With `CC(C)C(c1ccc(NC(=O)C2CCCC2)cc1)n1ccnc1` (racemic) [Compound 192] the IC50 [1] was 3.34 nM and the “LAD (lowest active dose)” value (Ovariectomized rats) was greater than 10.00 mg/kg.

`CC(C)C(c1ccc(NC(=O)C2CCCCC2)cc1)n1ccnc1` (racemic) [Compound 193] was tested, and the IC50 [1] was 12.1 nM and the “LAD (lowest active dose)” value (Ovariectomized rats) was greater than 10.00 mg/kg.

`CC(C)C(c1ccc(NC(=O)c2ccncc2)cc1)n1ccnc1` (racemic) [Compound 194] was tested, and the IC50 [1] was 7.07 nM and the “LAD (lowest active dose)” value (Ovariectomized rats) was 10.00 mg/kg.

With `CC(C)C(c1ccc(NC(=O)c2cccnc2)cc1)n1ccnc1` (racemic) [Compound 196] the IC50 [1] was 22.3 nM and the “LAD (lowest active dose)” value (Ovariectomized rats) was greater than 10.00 mg/kg.

`CC(C)C(c1ccc(NC(=O)C2(C)CCCCC2)cc1)n1ccnc1` (racemic) [Compound 201] was tested, and the IC50 [1] was 3.58 nM and the “LAD (lowest active dose)” value (Ovariectomized rats) was greater than 10.00 mg/kg.

In the case of `CC(C)C(c1ccc(NC(=O)C2CCCCC2C)cc1)n1ccnc1` (racemic) [Compound 202], the IC50 [1] is reported as 1.84 nM and the “LAD (lowest active dose)” value (Ovariectomized rats) is reported as greater than 10.00 mg/kg.

For `CC(C)C(c1ccc(NC(=O)c2ccc3c(c2)CCC(=O)N3)cc1)n1ccnc1` (racemic) [Compound 205], the IC50 [1] was 11.7 nM and the “LAD (lowest active dose)” value (Ovariectomized rats) was greater than 10.00 mg/kg.

With `C/C(C(=O)Nc1ccc(C(C(C)C)n2ccnc2)cc1)=C(/c1ccccc1)c1ccco1` (racemic) [Compound 207] the IC50 [1] was 25.4 nM and the “LAD (lowest active dose)” value (Ovariectomized rats) was 10.00 mg/kg.

With `CC(C)C(c1ccc(NC(=O)c2ccccn2)cc1)n1ccnc1` (racemic) [Compound 208] the IC50 [1] was 6.43 nM and the “LAD (lowest active dose)” value (Ovariectomized rats) was greater than 10.00 mg/kg.

With `CC(C)C(=O)Nc1ccc(C(C(C)C)n2ccnc2)cc1` (racemic) [Compound 209] the IC50 [1] was 8.27 nM and the “LAD (lowest active dose)” value (Ovariectomized rats) was 5.00 mg/kg.

For `CC(C)C(c1ccc(NC(=O)CSCc2ccccc2)cc1)n1ccnc1` (racemic) [Compound 210], the IC50 [1] was 29 nM and the “LAD (lowest active dose)” value (Ovariectomized rats) was 20.00 mg/kg.

With `CC(C)C(c1ccc(NC(=O)CNc2ccccc2)cc1)n1ccnc1` (racemic) [Compound 213] the IC50 [1] was 2.07 nM and the “LAD (lowest active dose)” value (Ovariectomized rats) was 20.00 mg/kg.

`CC(C)C(c1ccc(NC(=O)c2ccc3ccccc3n2)cc1)n1ccnc1` (racemic) [Compound 215] was tested, and the IC50 [1] was 36 nM and the “LAD (lowest active dose)” value (Ovariectomized rats) was 20.00 mg/kg.

`CC(C)C(c1ccc(NC(=O)c2cnc3ccccc3n2)cc1)n1ccnc1` (racemic) [Compound 216] was tested, and the IC50 [1] was 11.7 nM and the “LAD (lowest active dose)” value (Ovariectomized rats) was 20.00 mg/kg.

Work on `CCOC(=O)CCCC(=O)Nc1ccc(C(C(C)C)n2ccnc2)cc1` (racemic) [Compound 219, (±)-ethyl 5-[[4-[1-(1H-imidazol-1-yl)-2-methylpropyl]phenyl]amino]-5-oxopentanoate] yielded an IC50 ([1]; MCF7) of 3.2 nM and a minimal effective dose (Ovariectomized rats) of 20 mg/kg.

With `CC(C)C(c1ccc(NC(=O)c2ccc(Br)o2)cc1)n1ccnc1` (racemic) [Compound 220] the IC50 [1] was 1.48 nM and the “LAD (lowest active dose)” value (Ovariectomized rats) was 20.00 mg/kg.

For `CC(C)C(c1ccc(NC(=O)C(C)(C)Oc2ccc(Cl)cc2)cc1)n1ccnc1` (racemic) [Compound 222], the IC50 [1] was 3.32 nM and the “LAD (lowest active dose)” value (Ovariectomized rats) was 20.00 mg/kg.

In the case of `CC(C)C(c1ccc(NC(=O)CSc2ccccc2)cc1)n1ccnc1` (racemic) [Compound 223], the IC50 [1] is reported as 1.2 nM and the “LAD (lowest active dose)” value (Ovariectomized rats) is reported as 5.00 mg/kg.

With `CC(C)C(c1ccc(NC(=O)c2ccnc3ccccc23)cc1)n1ccnc1` (racemic) [Compound 227] the IC50 [1] was 7.8 nM and the “LAD (lowest active dose)” value (Ovariectomized rats) was greater than 10.00 mg/kg.

`CC(C)C(c1ccc(NC(=O)c2ccc[nH]c2=O)cc1)n1ccnc1` (racemic) [Compound 228] was tested, and the IC50 [1] was 73 nM and the “LAD (lowest active dose)” value (Ovariectomized rats) was greater than 10.00 mg/kg.

In the case of `CC(C)C(c1ccc(NC(=O)c2cccc3c2OCCO3)cc1)n1ccnc1` (racemic) [Compound 230], the IC50 [1] is reported as 3.89 nM and the “LAD (lowest active dose)” value (Ovariectomized rats) is reported as greater than 10.00 mg/kg.

With `COc1ccc(C(=O)Nc2ccc(C(C(C)C)n3ccnc3)cc2)cc1OC` (racemic) [Compound 231] the IC50 [1] was 1.86 nM and the “LAD (lowest active dose)” value (Ovariectomized rats) was greater than 10.00 mg/kg.

For `CC(C)C(c1ccc(NC(=O)c2ccc3c(c2)OCO3)cc1)n1ccnc1` (racemic) [Compound 232], the IC50 [1] was 1.51 nM and the “LAD (lowest active dose)” value (Ovariectomized rats) was greater than 10.00 mg/kg.

For `CC(C)C(c1ccc(NC(=O)c2cccc3nccnc23)cc1)n1ccnc1` (racemic) [Compound 233], the IC50 [1] was 2.43 nM and the “LAD (lowest active dose)” value (Ovariectomized rats) was greater than 10.00 mg/kg.

`CC(C)C(c1ccc(NC(=O)Cc2ccco2)cc1)n1ccnc1` (racemic) [Compound 235] was tested, and the IC50 [1] was 6.94 nM and the “LAD (lowest active dose)” value (Ovariectomized rats) was 5.00 mg/kg.

`CC(C)C(c1ccc(NC(=O)C(C)(C)O)cc1)n1ccnc1` (racemic) [Compound 236] was tested, and the IC50 [1] was 98.4 nM and the “LAD (lowest active dose)” value (Ovariectomized rats) was 5.00 mg/kg.

For `CC(C)C(c1ccc(NC(=O)CC2COc3ccccc3O2)cc1)n1ccnc1` (racemic) [Compound 237], the IC50 [1] was 18.2 nM and the “LAD (lowest active dose)” value (Ovariectomized rats) was 5.00 mg/kg.

In the case of `CC(C)C(c1ccc(NC(=O)c2ccc(-c3ccccc3)cc2)cc1)n1ccnc1` (racemic) [Compound 238], the IC50 [1] is reported as greater than 100 nM and the “LAD (lowest active dose)” value (Ovariectomized rats) is reported as 5.00 mg/kg.

For `CC(C)C(c1ccc(NC(=O)CSc2ccncc2)cc1)n1ccnc1` (racemic) [Compound 239], the IC50 [1] was 0.728 nM and the “LAD (lowest active dose)” value (Ovariectomized rats) was 10.00 mg/kg.

`CC(C)C(c1ccc(NC(=O)Cc2ccc3ccccc3c2)cc1)n1ccnc1` (racemic) [Compound 240] was tested, and the IC50 [1] was 1.34 nM and the “LAD (lowest active dose)” value (Ovariectomized rats) was 10.00 mg/kg.

`CC(C)C(c1ccc(NC(=O)c2cnc3ccccc3c2)cc1)n1ccnc1` (racemic) [Compound 241] was tested, and the IC50 [1] was 2.59 nM and the “LAD (lowest active dose)” value (Ovariectomized rats) was 10.00 mg/kg.
